Species: Rattus norvegicus
Experiment: Open TG-GATES - Regimen: Single
Type: toxicity, organism-based, Sprague-Dawley
Design: regimen Single, gender Male, age 6 weeks
Conditions: in vivo, po, 300 mg/kg, route gavage, dose level Middle; for APTT / Bas / Eos / Fbg / Hb / Ht / Lym / MCH / MCHC / MCV / Mono / Neu / PT / Plat / RBC / Ret / WBC: tissue Blood; for KIDNEY_L / KIDNEY_R / KIDNEY_TOTAL: tissue Kidney; for LIVER: tissue Liver; for A/G / ALP / ALT / AST / BUN / CRE / Ca / Cl / DBIL / GLC / IP / K / LDH / Na / PL / RALB / TBIL / TC / TG / TP / gamma-GTP: tissue Plasma

`CCOC(=O)CCC(=O)O[C@H]1[C@H](O[C@@H]2[C@@H](C)[C@H](O[C@H]3C[C@@](C)(OC)[C@@H](O)[C@H](C)O3)[C@@H](C)C(=O)O[C@H](CC)[C@@](C)(O)[C@H](O)[C@@H](C)C(=O)[C@H](C)C[C@@]2(C)O)O[C@H](C)C[C@@H]1N(C)C` [ERYTHROMYCIN ETHYLSUCCINATE] gave a TERMINAL_BW (3 h) of 220.4 g, an APTT (3 h) of 21.7 s and a Bas (3 h) of 0%. The Eos (3 h) was 1%, the Fbg (3 h) was 294.4 mg/dL and the Hb (3 h) was 12.8 g/dL. It also gave a Ht (3 h) of 38.6%, a Lym (3 h) of 75.4% and an MCH (3 h) of 21.2 pg. The MCHC (3 h) was 33.2%, the MCV (3 h) was 63.8 fL and the Mono (3 h) was 2.6%. It also gave a Neu (3 h) of 19.8%, a PT (3 h) of 15.7 s and a Plat (3 h) of 123.6 x10_4/uL. The RBC (3 h) was 606.2 x10_4/ul, the Ret (3 h) was 7.9% and the WBC (3 h) was 80.1 x10_2/uL. The KIDNEY_L (3 h) was 1 g, the KIDNEY_R (3 h) was 1 g and the KIDNEY_TOTAL (3 h) was 2.1 g. The LIVER (3 h) was 10 g, the A/G (3 h) was 1.2 and the ALP (3 h) was 1689.6 IU/L. It also gave an ALT (3 h) of 42.4 IU/L, an AST (3 h) of 74.2 IU/L and a BUN (3 h) of 11.6 mg/dL. It also gave a CRE (3 h) of 0.2 mg/dL, a Ca (3 h) of 10.5 mg/dL and a Cl (3 h) of 103.8 meq/L. The DBIL (3 h) was 0.004 mg/dL, the GLC (3 h) was 179 mg/dL and the IP (3 h) was 9.1 mg/dL. The K (3 h) was 4.1 meq/L, the LDH (3 h) was 141 IU/L and the Na (3 h) was 138.6 meq/L. For the same molecule, the PL (3 h) was 149 mg/dL, the RALB (3 h) was 2.9 g/dL and the TBIL (3 h) was 0.026 mg/dL. For the same molecule, the TC (3 h) was 76.4 mg/dL, the TG (3 h) was 66.4 mg/dL and the TP (3 h) was 5.3 g/dL. The gamma-GTP (3 h) was 1 IU/L, the TERMINAL_BW (6 h) was 216.3 g and the APTT (6 h) was 22.3 s. It also gave a Bas (6 h) of 0%, an Eos (6 h) of 0.8% and a Fbg (6 h) of 318.4 mg/dL. It also gave a Hb (6 h) of 13.1 g/dL, a Ht (6 h) of 39.8% and a Lym (6 h) of 77.8%. It also gave an MCH (6 h) of 20.8 pg, an MCHC (6 h) of 32.8% and an MCV (6 h) of 63.5 fL. It also gave a Mono (6 h) of 3.8%, a Neu (6 h) of 16.4% and a PT (6 h) of 15.7 s. The Plat (6 h) was 115 x10_4/uL, the RBC (6 h) was 627.8 x10_4/ul and the Ret (6 h) was 8.7%. It also gave a WBC (6 h) of 87.9 x10_2/uL, a KIDNEY_L (6 h) of 1 g and a KIDNEY_R (6 h) of 1 g. The KIDNEY_TOTAL (6 h) was 2 g, the LIVER (6 h) was 9.2 g and the A/G (6 h) was 1.2. The ALP (6 h) was 1767.2 IU/L, the ALT (6 h) was 43.4 IU/L and the AST (6 h) was 72.8 IU/L. It also gave a BUN (6 h) of 10.8 mg/dL, a CRE (6 h) of 0.2 mg/dL and a Ca (6 h) of 10.6 mg/dL. The Cl (6 h) was 104 meq/L, the DBIL (6 h) was 0 mg/dL and the GLC (6 h) was 180 mg/dL. The IP (6 h) was 10.1 mg/dL, the K (6 h) was 4.2 meq/L and the LDH (6 h) was 160.2 IU/L. The Na (6 h) was 138.2 meq/L, the PL (6 h) was 140 mg/dL and the RALB (6 h) was 2.9 g/dL. For the same molecule, the TBIL (6 h) was 0.032 mg/dL, the TC (6 h) was 75.6 mg/dL and the TG (6 h) was 50.6 mg/dL. It also gave a TP (6 h) of 5.4 g/dL, a gamma-GTP (6 h) of 1.2 IU/L and a TERMINAL_BW (9 h) of 210.5 g. The APTT (9 h) was 22.3 s, the Bas (9 h) was 0% and the Eos (9 h) was 1.2%. For the same molecule, the Fbg (9 h) was 318.4 mg/dL, the Hb (9 h) was 13.4 g/dL and the Ht (9 h) was 40.5%. It also gave a Lym (9 h) of 79%, an MCH (9 h) of 20.8 pg and an MCHC (9 h) of 33%. For the same molecule, the MCV (9 h) was 62.9 fL, the Mono (9 h) was 2.6% and the Neu (9 h) was 15.8%. The PT (9 h) was 15.6 s, the Plat (9 h) was 125.3 x10_4/uL and the RBC (9 h) was 645.4 x10_4/ul. It also gave a Ret (9 h) of 8%, a WBC (9 h) of 77.8 x10_2/uL and a KIDNEY_L (9 h) of 1 g. For the same molecule, the KIDNEY_R (9 h) was 1 g, the KIDNEY_TOTAL (9 h) was 2 g and the LIVER (9 h) was 8.8 g. It also gave an A/G (9 h) of 1.2, an ALP (9 h) of 1386.8 IU/L and an ALT (9 h) of 33.8 IU/L. The AST (9 h) was 62.6 IU/L, the BUN (9 h) was 10 mg/dL and the CRE (9 h) was 0.2 mg/dL. For the same molecule, the Ca (9 h) was 10.5 mg/dL, the Cl (9 h) was 105.2 meq/L and the DBIL (9 h) was 0 mg/dL. The GLC (9 h) was 174.4 mg/dL, the IP (9 h) was 9.4 mg/dL and the K (9 h) was 4.2 meq/L. It also gave an LDH (9 h) of 170.6 IU/L, a Na (9 h) of 138.8 meq/L and a PL (9 h) of 136 mg/dL. For the same molecule, the RALB (9 h) was 3 g/dL, the TBIL (9 h) was 0.03 mg/dL and the TC (9 h) was 75.2 mg/dL. The TG (9 h) was 49.8 mg/dL, the TP (9 h) was 5.5 g/dL and the gamma-GTP (9 h) was 1.2 IU/L. For the same molecule, the TERMINAL_BW (24 h) was 226.7 g, the APTT (24 h) was 20.4 s and the Bas (24 h) was 0%. It also gave an Eos (24 h) of 1%, a Fbg (24 h) of 319.8 mg/dL and a Hb (24 h) of 13.7 g/dL. The Ht (24 h) was 41.1%, the Lym (24 h) was 85% and the MCH (24 h) was 21.1 pg. The MCHC (24 h) was 33.4%, the MCV (24 h) was 63.3 fL and the Mono (24 h) was 2.4%. For the same molecule, the Neu (24 h) was 10.8%, the PT (24 h) was 16 s and the Plat (24 h) was 117.1 x10_4/uL. It also gave an RBC (24 h) of 649.4 x10_4/ul, a Ret (24 h) of 7% and a WBC (24 h) of 88.2 x10_2/uL. It also gave a KIDNEY_L (24 h) of 1 g, a KIDNEY_R (24 h) of 1 g and a KIDNEY_TOTAL (24 h) of 2 g. For the same molecule, the LIVER (24 h) was 9.8 g, the A/G (24 h) was 1.2 and the ALP (24 h) was 1484 IU/L. The ALT (24 h) was 37.4 IU/L, the AST (24 h) was 69.6 IU/L and the BUN (24 h) was 15.4 mg/dL. For the same molecule, the CRE (24 h) was 0.1 mg/dL, the Ca (24 h) was 10.4 mg/dL and the Cl (24 h) was 106.8 meq/L. It also gave a DBIL (24 h) of 0.002 mg/dL, a GLC (24 h) of 195.4 mg/dL and an IP (24 h) of 8.1 mg/dL. The K (24 h) was 4.3 meq/L, the LDH (24 h) was 174.8 IU/L and the Na (24 h) was 142 meq/L. The PL (24 h) was 135.2 mg/dL, the RALB (24 h) was 2.9 g/dL and the TBIL (24 h) was 0.016 mg/dL. The TC (24 h) was 75.2 mg/dL, the TG (24 h) was 87.6 mg/dL and the TP (24 h) was 5.4 g/dL. For the same molecule, the gamma-GTP (24 h) was 1.2 IU/L.
